Measured values taken from US20260131016A1, “NOVEL AURISTATIN ANALOGS AND IMMUNOCONJUGATES THEREOF” (ADCENTRX THERAPEUTICS INC., priority 2021, published 2026).

Columns and labels:
[1] = tested on: HCC1954 breast ductal carcinoma; assay: Cell viability (Cell Titer Glo 2.0) in HCC1954, 120 hours; assay type: cell-based; conditions: for potency compared to the 1,4-NH2 configuration of the P5 moiety in 19 and 26: HCC1954 and T47D assays; for IC50: Homo sapiens, HCC1954, 120 h, read-out: IC50 (nM), in vitro potency in HCC1954
Method: (§1) HCC1954 breast ductal carcinoma and T47D cells (ATCC, Manassas, VA, USA) were seeded into 384-well white-walled culture plates and allowed to adhere for 2-4 hours. Cells were then treated at least in duplicate by addition of 5-fold serially diluted test articles prepared at 2× final concentration and incubated at 37° C. for 120 hours. Cell viability following treatment was determined by Cell Titer Glo 2.0 Assay (Promega, Madison, WI, USA) and normalized to non-treated controls. Dose-response relationships were analyzed using GraphPad Prism (La Jolla, CA, USA), and IC50 values were derived from non-linear regression analyses using a 4-parameter logistic equation.

T47D cells = assay: Cell viability (Cell Titer Glo 2.0) in T47D cells, 120 hours; assay type: cell-based
Method: as §1

[2] = N-methylated analogs 1,2-/1,3-/1,4-NH2, relative to the 1,3-NH2 analog (=1)
[3] = NCH3-amide compared to its NH-amide analog (=1)

| SMILES | potency compared to the 1,4-NH2 configuration of the P5 moiety in 19 and 26 [1] | IC50 [1] | IC50 (fold difference) HCC1954 [1, 2] | IC50 (fold difference) T47D (T47D cells; [2]) | IC50 (fold difference) HCC1954 [1, 3] | IC50 (fold difference) T47D (T47D cells; [3]) |
| --- | --- | --- | --- | --- | --- | --- |
| CC[C@H](C)[C@@H]([C@@H](CC(=O)N1CCC[C@H]1[C@H](OC)[C@@H](C)C(=O)N(C)CCc1ccccc1N)OC)N(C)C(=O)[C@@H](NC(=O)[C@H](C)N(C)C)C(C)C [Compound 16, (S)-N-((3R,4S,5S)-1-((S)-2-((1R,2R)-3-((2-aminophenethyl)(methyl)amino)-1-methoxy-2-methyl-3-oxopropyl)pyrrolidin-1-yl)-3-methoxy-5-methyl-1-oxoheptan-4-yl)-2-((S)-2-(dimethylamino)propanamido)-N,3-dimethylbutanamide] | more potent | < 5 nM | 1.8 fold difference | 3.4 fold difference | – | – |
| CC[C@H](C)[C@@H]([C@@H](CC(=O)N1CCC[C@H]1[C@H](OC)[C@@H](C)C(=O)N(C)CCc1ccc(N)cc1)OC)N(C)C(=O)[C@@H](NC(=O)[C@H](C)N(C)C)C(C)C [Compound 26, (S)-N-((3R,4S,5S)-1-((S)-2-((1R,2R)-3-((4-aminophenethyl)(methyl)amino)-1-methoxy-2-methyl-3-oxopropyl)pyrrolidin-1-yl)-3-methoxy-5-methyl-1-oxoheptan-4-yl)-2-((S)-2-(dimethylamino)propanamido)-N,3-dimethylbutanamide] | – | 5 to 10 nM | 4.2 fold difference | 12.7 fold difference | – | – |
| CC[C@H](C)[C@@H]([C@@H](CC(=O)N1CCC[C@H]1[C@H](OC)[C@@H](C)C(=O)N(C)CCc1ccc(N)cc1)OC)N(C)C(=O)[C@@H](NC(=O)[C@H](C(C)C)N(C)C)C(C)C [Compound 19, (S)-N-((3R,4S,5S)-1-((S)-2-((1R,2R)-3-((4-aminophenethyl)(methyl)amino)-1-methoxy-2-methyl-3-oxopropyl)pyrrolidin-1-yl)-3-methoxy-5-methyl-1-oxoheptan-4-yl)-2-((S)-2-(dimethylamino)-3-methylbutanamido)-N,3-dimethylbutanamide] | – | < 5 nM | 2.1 fold difference | 3.8 fold difference | 2.3 fold difference | 6.9 fold difference |
| CC[C@H](C)[C@@H]([C@@H](CC(=O)N1CCC[C@H]1[C@H](OC)[C@@H](C)C(=O)NCCc1ccc(N)cc1)OC)N(C)C(=O)[C@@H](NC(=O)[C@H](C(C)C)N(C)C)C(C)C [Compound 22, (S)-N-((3R,4S,5S)-1-((S)-2-((1R,2R)-3-((4-aminophenethyl)amino)-1-methoxy-2-methyl-3-oxopropyl)pyrrolidin-1-yl)-3-methoxy-5-methyl-1-oxoheptan-4-yl)-2-((S)-2-(dimethylamino)-3-methylbutanamido)-N,3-dimethylbutanamide] | – | – | – | – | 1 fold difference | 1 fold difference |
| CC[C@H](C)[C@@H]([C@@H](CC(=O)N1CCC[C@H]1[C@H](OC)[C@@H](C)C(=O)N(C)CCc1cccc(N)c1)OC)N(C)C(=O)[C@@H](NC(=O)[C@H](C(C)C)N(C)C)C(C)C [Compound 1, (S)-N-((3R,4S,5S)-1-((S)-2-((1R,2R)-3-((3-aminophenethyl)(methyl)amino)-1-methoxy-2-methyl-3-oxopropyl)pyrrolidin-1-yl)-3-methoxy-5-methyl-1-oxoheptan-4-yl)-2-((S)-2-(dimethylamino)-3-methylbutanamido)-N,3-dimethylbutanamide] | more potent | < 5 nM | 1 fold difference | 1 fold difference | 1.5 fold difference | 1.6 fold difference |
| CC[C@H](C)[C@@H]([C@@H](CC(=O)N1CCC[C@H]1[C@H](OC)[C@@H](C)C(=O)N(C)CCc1cccc(N)c1)OC)N(C)C(=O)[C@@H](NC(=O)[C@H](C)N(C)C)C(C)C [Compound 2, (S)-N-((3R,4S,5S)-1-((S)-2-((1R,2R)-3-((3-aminophenethyl)(methyl)amino)-1-methoxy-2-methyl-3-oxopropyl)pyrrolidin-1-yl)-3-methoxy-5-methyl-1-oxoheptan-4-yl)-2-((S)-2-(dimethylamino)propanamido)-N,3-dimethylbutanamide] | more potent | < 5 nM | 1 fold difference | 1 fold difference | – | – |
| CC[C@H](C)[C@@H]([C@@H](CC(=O)N1CCC[C@H]1[C@H](OC)[C@@H](C)C(=O)NCCc1ccccc1N)OC)N(C)C(=O)[C@@H](NC(=O)[C@H](C(C)C)N(C)C)C(C)C [Compound 21, (S)-N-((3R,4S,5S)-1-((S)-2-((1R,2R)-3-((2-aminophenethyl)amino)-1-methoxy-2-methyl-3-oxopropyl)pyrrolidin-1-yl)-3-methoxy-5-methyl-1-oxoheptan-4-yl)-2-((S)-2-(dimethylamino)-3-methylbutanamido)-N,3-dimethylbutanamide] | – | – | – | – | 1 fold difference | 1 fold difference |
| CC[C@H](C)[C@@H]([C@@H](CC(=O)N1CCC[C@H]1[C@H](OC)[C@@H](C)C(=O)NCCc1cccc(N)c1)OC)N(C)C(=O)[C@@H](NC(=O)[C@H](C(C)C)N(C)C)C(C)C [Compound 20, (S)-N-((3R,4S,5S)-1-((S)-2-((1R,2R)-3-((3-aminophenethyl)amino)-1-methoxy-2-methyl-3-oxopropyl)pyrrolidin-1-yl)-3-methoxy-5-methyl-1-oxoheptan-4-yl)-2-((S)-2-(dimethylamino)-3-methylbutanamido)-N,3-dimethylbutanamide] | – | – | – | – | 1 fold difference | 1 fold difference |
